Source: patent publication US20130108688A1, “Delivery of H2 Antagonists” (Trustees of Boston University, priority 2004, published 2013)
Like-named read-outs stand apart in the source and are kept apart here.

Columns and labels:
[1] = test system: P. gingivalis-induced periodontitis; conditions: for overall effect on tissue destruction and inflammatory cell infiltrate: local administration, three dosages; for linear distance from the epithelium to the alveolar crest border, ratio ligated/non-ligated sites (FIG. 6A): tip, middle and base of the crest
Method: In total, 21 New Zealand White rabbits (male, 3.5-4.0 kg each) were used in the experiments presented herein. Three different doses of Cimetidine (0.1, 1.0 and 10 μg/mL) have been prepared in paucilamellar liposomes (NOVASOME®). The animals were distributed as follows: Group A: Ligature alone (2 rabbits); Group B: Ligature+P. gingivalis (4 rabbits); Group C: Ligature+P. gingivalis+liposome (NOVASOME®) alone; Group D: Ligature+P. gingivalis+NOVASOME® preparation comprising 0.1 μg/mL of Cimetidine (4 rabbits); Group E: Ligature+P. gingivalis+NOVASOME® preparation comprising 1.0 μg/mL of Cimetidine (4 rabbits); and Group F: Ligature+P. gingivalis+NOVASOME® preparation comprising 10 μg/mL of Cimetidine (4 rabbits). All animals were purchased from Pine Acre Farms (Berthoud, Co.). The weight of the animals was strictly controlled and all animals weighed between 3.5-4.0 kg at the time of the initial experimentation. The animals were kept in individual cages, received water ad libitum, and were fed with specialized food (chow) for at least 5 days for acclimatization by experienced and licensed laboratory technicians at the Laboratory Animal Science Center at BUMC (BUMC LASC).
Ligature placement was performed under general anesthesia using ketamine (40 mg/kg) and xylazine (5 mg/kg) injections. […] Animals in group A received ligature only while animals in groups B, C, D, E, and F received P. gingivalis in addition to ligature placement.
P. gingivalis (strain A74376) was grown as previously described. Briefly, bacteria were cultured on agar plates containing trypticase soy agar supplemented with 0.5% (w/v) yeast extract, 5% defibrinated sheep red blood cells, […], and 1 μg/mL vitamin K. Plates were incubated for 3 days at 37° C. in jars anaerobically maintained through palladium catalyzed hydrogen/carbon dioxide envelopes (GasPak Plus, BD Microbiology Systems, Sparks, Md.). Colonies were randomly selected and anaerobically cultured overnight at 37° C. in Schaedler's broth supplemented with vitamin K and hemin. Bacteria numbers were spectrophotometrically determined at 600 nm and 10^9 CFU (0.8 OD) were mixed with carboxymethylcellulose to form a thick slurry, which was applied topically to the ligated teeth. The sutures were checked at every appointment, and lost or loose sutures were replaced.
Topical application was performed in animals of Groups D, E, and F every other day for 6 weeks under inhalation anesthesia using isoflurane (4.0 MAC/2.0 MAC). In these groups, Cimetidine was applied at three different doses. Cimetidine preparations were delivered in liposomes (NOVASOME®) that served as a vehicle for the H2 receptor antagonist. In order to see if liposome application alone would have any effect on the outcome, animals in Group C received liposomes without Cimetidine (i.e., NOVASOME® alone) in addition to ligature placement and P. gingivalis.
For histological analysis, the other half of the mandible was immersed in a volume of immunocal (Decal Corporation, Tallman, N.Y.) equal to at least 10 times the size of the section; the solution was replaced every 24 hours for 72 hours. Decalcification was assessed and confirmed by serial radiographs, which were taken every other day during two weeks.
The tissue was kept in this solution for 2-3 minutes, rinsed again in flowing deionized water for at least 3 minutes and kept in formalin for at least 24 hours before embedding in paraffin. Thin sections (5 μm) were cut and sections were conventionally stained with hematoxylin and eosin (H&E) to identify the cellular composition of the inflammatory infiltrates, and one hundred seventy (170) 5 μm-sections were stained with tartrate-resistant acid phosphatase (TRAP) to detect osteoclastic activity.
The data obtained by direct measurements during morphologic assessment and by histomorphometric measurements was used in multiple statistical analyses.

[2] = test system: P. gingivalis and ligature-induced experimental periodontitis
[3] = test system: P. gingivalis-induced periodontitis; conditions: three doses; p<0.05
[4] = test system: immunized normal cells; conditions: in vitro; optimum enhancement at lower dosage (10 μg) on first day; cited from earlier work
[5] = test system: CD8 (cytotoxic/suppressor) and CD4 (helper/inducer) lymphocytes; conditions: 800 mg daily for 7 days; cited from earlier work
[6] = AIDS patients; cited from earlier work
[7] = test system: H2 receptor; conditions: via H2 receptor; cited from earlier work
[8] = topical application to the oral cavity; cited from earlier work
[9] = test system: neutrophils; conditions: cited from earlier work
[10] = test system: lymphocyte; conditions: cited from earlier work

Structure (SMILES) | overall effect on tissue destruction and inflammatory cell infiltrate [1] | overall effect on tissue destruction and inflammatory cell infiltrate ([1]; listed as cimetidine) | total, ligatured and ratio of ligatured/non-ligatured areas of the alveolar crest (FIG. 6B) ([1]; three doses) | linear distance from the epithelium to the alveolar crest border, ratio ligated/non-ligated sites (FIG. 6A) ([1]; three doses) | linear distance from the epithelium to the alveolar crest border, ratio ligated/non-ligated sites (FIG. 6A) ([1]; three doses, listed as cimetidine) | bone loss and inflammatory changes, H&E stained sections (FIG. 4) ([1]; topical 0.1, 1.0 and 10 μg/mL, Groups D, E, F) | preventive effect on bone loss, quantitative analysis of defleshed bone specimens (FIG. 2) ([2]; all three doses vs liposome (NOVASOME) placebo, p<0.05, ANOVA) | gingival inflammation and bone destruction (macroscopic, FIG. 1) ([2]; topical, in NOVASOME liposomes, 0.1, 1.0 and 10 μg/mL, every other day for 6 weeks, Groups D, E, F) | percentage of bone loss as calculated by Bjorn technique (FIG. 3 lower panel) [3] | primary humoral antibody response [4] | CD4 (helper/inducer) lymphocytes [5] | CD8 (cytotoxic/suppressor) lymphocytes [5] | clinical symptoms of disease [6] | histamine-mediated increase in IL-α induced IL-6 synthesis [7] | resolution of intra- and peri-oral warts [8] | superoxide (O2·-) and hydrogen peroxide (H2O2) production of neutrophils [9] | immunomodulating effect among H2 receptor antagonists (cimetidine, ranitidine, famotidine) [10]
CN/C(=N/CCSCc1nc[nH]c1C)NC#N [Cimetidine] | prevent bone loss, inflammatory cell infiltration, and connective tissue destruction | inhibits P. gingivalis-elicited leukocyte migration toward the site of infection | no significant differences between the cimetidine groups | significantly increased (p<0.05) distances compared to the Cimetidine-treated groups | almost similar, insignificant (p>0.05) mean ratio values | prevent both bone loss and inflammatory changes | statistically significant | prevented the gingival inflammation and bone destruction in a significant and comparable way with no apparent dose-dependent effect | prevents the destructive effects of P. gingivalis-induced periodontitis | markedly influence | corresponding increase | decrease | significant improvement effect | completely reverse | complete resolution | reduces | strongest immunomodulating effect
C/N=C(\S)NCCSCc1[nH]cnc1C [metiamide] | – | – | – | – | – | – | – | – | – | markedly influence | – | – | – | – | – | – | –
